Entries after “also recorded” stand apart in the source; their conditions may differ. Where two headings read alike, the source gives them in different places.
What was measured:
borage seeds (M1) = type: in vivo, Borago officinalis
Protocol: Approximately 164000 borage seeds were divided into 6 groups for mutagenesis. The seeds (M1) were soaked in 0.5%, 1.0% and 1.5% (v/v) of EMS solutions for 8 hours and 16 hours respectively, and then rinsed with tap water for 4 hours. After washing, the seeds are dried with paper towel. The mutagenized seeds were sowed in 48 plots in a research farm in Saskatoon, SK, in June, 2012. Each plot was 7.5×1.5 m in size and sowed 86 g of mutagenized seeds. M1 borage plants were grown to maturity and M2 seeds were harvested by groups according to the EMS treatments.

[1] = test system: M4 homozygous imidazolinone-resistant borage (AHAS1 mutant); type: in vivo, Borago officinalis; conditions: AHAS1 mutant line, 2X of the recommended rate, 21 days after spraying
Protocol: Adjuvant reagent for each herbicide was added into spray solution accordingly. Sprayed M4 borage plants were visually evaluated at 21 days after spraying by comparing with wild-type controls.

[2] = test system: AHAS enzyme of susceptible borage (wild-type); assay: In vitro AHAS activity assay, susceptible (wild-type) borage leaf protein extract; type: biochemical, Borago officinalis; conditions: 625 μM imazamox
Source text: (§1) The herbicide imazamox is an inhibitor of the AHAS enzyme. […] It has been shown from the above Examples that the AHAS1 mutant borage line can tolerate two times the recommended dosage of “Solo” herbicide and the tolerance is caused by the single nucleotide mutation of the AHAS1 gene. As such, the AHAS activity level of the mutant plants would provide further evidence to support the conclusion. AHAS enzyme activity is generally measured using a discontinuous colorimetric assay based on the method developed by Singh et al. (Singh B K, et al. Assay of acetohydroxyacid synthase. Analytical Biochemistry 171 (1988) 173-179). In this method, the crude protein is incubated with the substrate for a fixed time to generate intermediate acetolactate that is then converted to acetoin under decarboxylation. Finally, the reaction of acetoin with creatine and α-naphthol forms a pink-colored product which can be measured at 520 nm wavelength in a spectrometer. As a result, the AHAS activity level can be estimated based on the color density. See Duggleby R G and Pang S S. (2000) supra. […]
(§2) The gummy protein layer was re-dissolved in 1.4 mL incubation buffer containing 50 mM K2HPO4 buffer (pH 7.0), 100 mM sodium pyruvate, 10 mM MgCl2, 1 mM TPP and 1 μM FAD. The amount of protein in each sample was determined immediately by the Bio-Rad protein assay using a dye reagent (#500-0006). […]

[3] = test system: AHAS enzyme of homozygous resistant borage (AHAS1 mutant); assay: In vitro AHAS activity assay, resistant (AHAS1 mutant) borage leaf protein extract; type: biochemical, Borago officinalis; conditions: across all imazamox concentrations (0-625 μM)
Source text: as §1, §2

CCOS(C)(=O)=O [EMS, ethyl methanesulfonate]
Germination Rate (%) (borage seeds (M1); 0.5% EMS 8 hrs): 19%
Germination Rate (%) (borage seeds (M1); 0.5% EMS 16 hrs): 8%
Germination Rate (%) (borage seeds (M1); 1.0% EMS 8 hrs): 15%
Germination Rate (%) (borage seeds (M1); 1.0% EMS 16 hrs): 9%
Germination Rate (%) (borage seeds (M1); 1.5% EMS 8 hrs): 11%
Germination Rate (%) (borage seeds (M1); 1.5% EMS 16 hrs): 8%
germination rate (borage seeds (M1); all EMS-treated M1 seeds sown in the field): about 12%
sterility of M1 (borage seeds (M1); in vivo): pronounced sterility

COc1nn(C(=O)[N-]S(=O)(=O)c2ccccc2OC(F)(F)F)c(=O)n1C.[Na+] [flucarbazone sodium]
level of resistance / tolerance (in words) [1]: some tolerance

COCc1cnc(C2=NC(C)(C(C)C)C(=O)N2)c(C(=O)O)c1 (stereo not shown) [imazamox, 2-[4,5-dihydro-4-methyl-4-(1-methylethyl)-5-oxo-1H-imidazol-2-yl]-5-(methoxymethl)-3-pyridinecarboxylic acid.]
AHAS activity retained [2]: zero and completely inhibited
level of resistance / tolerance (in words) [1]: strong resistance; also recorded: equally strong resistant level
AHAS activity of mutant compared with wild type [3]: significantly higher AHAS activity than the wild type borage

CCc1cnc(C2=NC(C)(C(C)C)C(=O)N2)c(C(=O)O)c1 (stereo not shown) [imazethapyr, 2-[4.5-dihydro-4-methyl-4-(1-methylethyl)-5-oxo-1H-imidazol-2-yl]-5-ethyl-3-pyridinecarboxylic acid]
level of resistance / tolerance (in words) [1]: strong resistance; also recorded: equally strong resistant level
